One series has as its target T1, CCL22 (Homo sapiens, UniProt O00626).
T1 construct: codes for the mature CCL17 or CCL22 with an N-terminal thioredoxin-hexahistidin (TRX- (His)6) tag; thioredoxin (TRX) (N, cleaved yes); (His)6 (N, cleaved yes); made in house; host or cells: E. coli BL21 (DE3)
T1 sequence (O00626 25-93): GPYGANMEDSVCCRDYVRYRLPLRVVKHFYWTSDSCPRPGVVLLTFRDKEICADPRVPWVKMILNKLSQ
Description: TRIC-r calcium assay, neutraligand protocol: compound preincubated with CCL22, EGFP-CCR4+Gqi5+ HEK cells. Type of series: cell-based. The note with it: for IC50: 5 nM CCL22 preincubated 1 h with compound, 21 °C, read-out: IC50 for CCL22 neutralization (calcium assay); for inhibition at 2 µg/mL: 2 μg/ml compound preincubated 1 h with 5 nM CCL22, read-out: inhibition of CCL22-induced calcium responses (primary screen). The method, then:
(§1) EGFP-CCR4^+Gqi5^+HEKcells were loaded with fluorescent Ca^2+-indicator Indo-1 AM (5μM, Interchim) for 45 min at 37 °C. […] Cells (100,000 cells/well, 100μl) were seeded in black clear bottom 96-well plates (Greiner), and centrifuged at 250 × g for 5 min.
(§2) Two plates (96-well plates, Greiner) were prepared for the screen: one containing test compounds alone in order to determine their direct agonistic activity, and another one containing test compounds mixed with CCL17 or CCL22 at room temperature for 1 h (neutraligand protocol). The chemokines and test compounds were prepared at a 3× concentration, while digitonin was prepared at a 4× concentration. The CCR4 antagonist, C-021 served as control in the experiment. In the antagonist protocol, compounds were added to the cell plate (one compound per well) and incubated with cells for 30 min at room temperature, while the agonist (CCL17 or CCL22) was added to the ligand plate only.
(§3) Dye loaded cells were placed in the FlexStation 3 (Molecular Devices). […] For the primary screening, the ligands (50μl of chemokine mixed with DMSO or test compounds) were added to the cells at 40 s, followed by digitonin addition (50μl) at 100 s to the cells. Molecules were screened at a final concentration of 2μg/ml with 5 nM CCL17 or CCL22. […] The calcium response values (height of peak response over baseline) were determined. Hits were selected by comparing the response amplitude at the time of the chemokine addition ± test compound. The Z’ factor[29] was calculated according to the following equation: Z’ = 1-(3SD+ + 3SD−)/|Ave+ − Ave−|, where SD+ and Ave+ are respectively the standard deviation and the mean value of the positive controls (chemokine + DMSO), while SD− and Ave− are respectively the standard deviation and the mean value of the negative controls (HEPES-BSA (0.1%) mixed with DMSO, or cells mixed with C-021). Hit molecules were confirmed by performing concentration-response curves and their half maximal inhibitory concentration (IC50) values were calculated using the Kaleidagraph software.

The target of another series is T2, CCL17 (Homo sapiens, UniProt Q92583).
T2 construct: codes for the mature CCL17 or CCL22 with an N-terminal thioredoxin-hexahistidin (TRX- (His)6) tag; thioredoxin (TRX) (N, cleaved yes); (His)6 (N, cleaved yes); made in house; host or cells: E. coli BL21 (DE3)
T2 sequence (Q92583 24-94): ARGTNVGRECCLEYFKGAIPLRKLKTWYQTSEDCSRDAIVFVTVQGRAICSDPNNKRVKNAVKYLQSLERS
Briefly: TRIC-r calcium assay, neutraligand protocol: compound preincubated with CCL17, EGFP-CCR4+Gqi5+ HEK cells. Type of series: cell-based. The conditions noted are these: for IC50: 5 nM CCL17 preincubated 1 h with compound, 21 °C, read-out: IC50 for CCL17 neutralization (calcium assay); for inhibition at 2 µg/mL: 2 μg/ml compound preincubated 1 h with 5 nM CCL17, read-out: inhibition of CCL17-induced calcium responses (primary screen). The method, then: as §1, §2, §3

The target of series [1] is T3, EGFP-CCR4 on HEK cells (human) (UniProt P51679).
T3 sequence: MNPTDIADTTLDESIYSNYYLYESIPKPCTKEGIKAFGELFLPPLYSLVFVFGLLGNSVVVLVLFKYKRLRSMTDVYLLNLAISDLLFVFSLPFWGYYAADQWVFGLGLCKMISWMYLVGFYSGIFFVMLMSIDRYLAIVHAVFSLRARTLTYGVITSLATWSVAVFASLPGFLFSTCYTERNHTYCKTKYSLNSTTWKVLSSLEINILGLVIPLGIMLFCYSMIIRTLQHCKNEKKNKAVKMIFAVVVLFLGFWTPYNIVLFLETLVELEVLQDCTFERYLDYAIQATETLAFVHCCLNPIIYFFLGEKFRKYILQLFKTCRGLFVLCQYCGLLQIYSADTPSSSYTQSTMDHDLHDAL

Series [2] in a line: Solubility measurements (RP-HPLC). The series is classed as physicochemical. The conditions noted are these: dissolved at 10 µM, room temperature; for solubility at 1 h: kinetic from dmso stock. The method, then: Standard stock solutions of compounds (10mM) were prepared in DMSO, and the molecules were dissolved at a concentration of 10µM in each of the three buffers. The samples were shaken for 1h at room temperature, and centrifuged at 15,000×g . The compounds concentration in the supernatant solutions was determined using RP-HPLC (Gilson) technique. The measurements were done with a UV detector set at 230nm. The measurements were carried out at room temperature using a C18 column ([…], 50×4.6mm, Phenomenex). The aqueous mobile phase contained 0.05% trifluoroacetic acid (solvent A, Sigma-Aldrich). The organic phase was HPLC grade acetonitrile (Sigma-Aldrich CHROMASOLV) (solvent B). The mobile phase flow rate was 2ml/min, and the following program was applied for the elution: 0–0.1min, 5% B; 0.1–2.6min, 5–95% B; 2.6–3.1min, 95% B; 3.1–3.3min, 95–5% B; and 3.3–6min, 5% B. To establish external calibration curves, increasing concentrations of each compound were prepared from standard stock solutions.
The chromatograms were recorded by injecting 20µl of each standard solution, and the calibration curves were plotted using peak areas. […]

The subject of the next series is HUT78 T cells. Briefly: WST-1 metabolic activity assay. Type of series: cell-based, human. The note with it: 30 μM, 72 h. From the text:
WST-1 metabolic activity assay
The colorimetric WST-1 cell metabolic assay (Ozyme) was used to assess the cytotoxic effect of chemokine neutraligands. This is a cell viability test based on the enzymatic cleavage by the mitochondrial succinate-tetrazolium reductase of a tetrazolium salt, WST-1 (4-[3-(4-Iodophenyl)-2-(4-nitrophenyl)-2H-5-tetrazolio]-1,3 benzene disulfonate), into a water- […]
soluble formazan dye which can be detected by absorbance at 420-480nm. HUT78 T cells (or HaCat cells) were seeded on 24-well plates (200,000 cells per well) and were incubated […]
concentration ≤1% on cells). The background control was reserved as one well containing the culture medium only. The plates were incubated for 72h at 37°C. Three days later, the medium containing the neutraligands was removed, and WST-1 reagent (1:10 final dilution) (Ozyme) was added to each well for a 2h incubation at 37°C as the manufacturer’s recommendation. The plates were shaken and absorbance was measured at 450nm (reference wavelength 690nm) against the background control, using a multiwell plate reader (EnVision, Perkin Elmer). Assays were performed as three independent replicates. […]
(Heidelberg, Germany) and was cultured in Dulbecco’s Modified Eagle Medium (DMEM) (Invitrogen) supplemented with 10% fetal bovine serum (FBS) (Gibco-BRL), 100U/ml penicillin (Invitrogen), 100µg/ml streptomycin (Invitrogen) and 2mM L-glutamine (Invitrogen) at 37°C and 5% CO 2. The cells received fresh medium every other day and were subcultured every 10 days. HaCat cells were seeded in a 24-well plate (ESSEN Bioscience) at a density of 200,000 cells per well, and were allowed to grow until confluence. A scratch wound along the cell monolayer was created using the Essen woundmakerTM. Cells were washed twice with PBS to remove detached cells, and were treated with serum-free culture medium in the absence or presence of 100ng/ml chemokine (CCL22 or CCL17) preincubated with DMSO or […]
The molecules were also tested alone […]
without the chemokine. […] One […]
µg/ml of mitomycin C (Sigma-Aldrich) was added throughout the experiment in order to block cell proliferation. Once treated, the cells were immediately placed into the IncuCyteTM live-cell imaging, and the cell migration onto the wounded area was examined for 72h. Phase-contrast images acquired for each sample were captured every 2h (objective lens x10), and […]
In general terms: Tetrazolium assays rely on reduction of a dye to a coloured formazan, in cell work by metabolically active cells.

The mark [3] stands for this setting: HEK293, compound 5 µM, read-out: Inhibition of CCL22 calcium responses (%).
The mark [4] stands for this setting: HEK293, compound 5 µM, read-out: Inhibition of CCL17 calcium responses (%).
[5] abbreviates: HEPES buffer, aqueous buffer, read-out: solubility in HEPES buffer.
Where [6] appears, read: complete cell culture medium, plasma or biological fluid, read-out: solubility in the cell culture medium.

In brackets after ≈: the same amount, converted by molar mass. Where two headings read alike, the source gives them in different places. Where only a bound is given, the exact number is not on record here.

By inhibition is commonly meant the percentage by which the read-out fell short of the control. Take `CC(C)Cn1c(=O)n(C)c(=O)c2[nH]cnc21` [IBMX, 3-isobutyl-1-methyl xanthine, reference compound]: the inhibition at 5 µM on CCL22 (setting [3]) and at CCL17 (setting [4]) was 0% each time. Moreover, on CCL17 (compound 5 µM), the “Inhibition of CCL17 calcium responses (%)” value is “no effect”.

Regarding “recombinant human CCL17 (from UniProt Q92583 24-94) (ligand)”, the EC50 of calcium responses in EGFP-CCR4+ Gqi5+ HEK cells at 21 °C in series [1] was found to be 3.7 nM.

What is called solubility is the dissolved amount per volume that the medium holds. As a reminder, the IC50 is the concentration needed to halve the response being measured. Take `COc1cc(C2=N/C(=C\c3ccccc3)C(=O)O2)cc(OC)c1OC` [GPN251, (Z)-4-benzylidene-2-(3,4,5-trimethoxyphenyl)oxazol-5(4H)-one]: in series [2] (setting [5]), the solubility at 1 h stood at 0.7 µM (≈ 0.238 µg/mL). For the same molecule, in series [2] (1 h), the “solubility in the cell culture medium” value is listed as “not detected as a free molecule”. On CCL17, the IC50 amounted to 900 ± 100 nM. For the same molecule, the inhibition at 2 µg/mL on CCL17 (HEK293) came out at 53%.

As for `CN1C(=O)N(C)C2=NNC=NC2(O)C1=O` (centres unmarked) [GPN355, 4a-hydroxy-6,8-dimethyl-6,8-dihydropyrimido[5,4-e][1,2, 4]triazine-5,7(2H, 4aH)-dione], the “inhibition of HUT78 cell metabolic activity” value in the series on HUT78 T cells turned out to be 23.1%. The IC50 at CCL22 came to 200 nM; at CCL17 it was 9600 ± 900 nM. In addition, the results for the inhibition at 2 µg/mL at CCL22 (HEK293) and at CCL17 (HEK293) were 100% and 42%, respectively. Also, the solubility at 1 h in series [2] (setting [5]) and in series [2] (setting [6]) was above 10 µM throughout.

With `Cn1c(=O)c2c(ncn2C)n(C)c1=O` [Caffeine, reference compound], the inhibition at 5 µM at CCL22 (setting [3]) and at CCL17 (setting [4]) was 0% in each case. The “Inhibition of CCL17 calcium responses (%)” value at CCL17 (compound 5 µM) is “no effect”.

In the case of `COc1ccc([C@@H](C)C(=O)c2ccc(O)cc2O)cc1` [GPN025, (R)-1-(2,4-dihydroxyphenyl)-2-(4-methoxyphenyl)propan-1-one], the “inhibition of HUT78 cell metabolic activity” value in the series with HUT78 T cells was determined as 81.3%. The IC50 on CCL22 was 10600 ± 3700 nM. For the same molecule, the inhibition at 2 µg/mL at CCL22 (HEK293) was 44%. Further, the solubility at 1 h in series [2] (setting [5]) and in series [2] (setting [6]) was above 10 µM throughout.

Consider `CC(=O)Oc1ccccc1C(=O)O` [aspirin, Acetylsalicylic acid, reference compound], for which the inhibition at 5 µM at CCL22 (setting [3]) and on CCL17 (setting [4]) was 0% each time.

As for `Cn1c(=O)c2[nH]cnc2n(C)c1=O` [Theophylline, reference compound], the inhibition at 5 µM turned out to be 0% on CCL22 (HEK293, read-out: Inhibition of CCL22 calcium responses (%)) and 0% on CCL17 (HEK293, read-out: Inhibition of CCL17 calcium responses (%)). Besides, at CCL17 (compound 5 µM), the “Inhibition of CCL17 calcium responses (%)” value was “no effect”.

On to `O=C(O)c1ccccc1O` [GPN0001207], for which the “Inhibition of CCL22 calcium responses (%)” value was 0.0% at CCL22 (compound 5 µM, 5 µM) and “no inhibitory effect” at CCL22 (compound 5 µM, listed as GPN001207, 5 µM). The “Inhibition of CCL17 calcium responses (%)” value on CCL17 (compound 5 µM) is recorded as 0.0%.

B1: recombinant human CCL22 (ligand)
chain: GPYGANMEDSVCCRDYVRYRLPLRVVKHFYWTSDSCPRPGVVLLTFRDKEICADPRVPWVKMILNKLSQ
Regarding B1, in series [1], the EC50 of calcium responses in EGFP-CCR4+ Gqi5+ HEK cells at 21 °C was found to be 2.9 nM.

These data come from publication PMC4595804, “A strategy to discover decoy chemokine ligands with an anti-inflammatory activity” (Scientific Reports, 2015).
